Laboratory results taken from ChEMBL document CHEMBL4602662, “Orthoscuticellines A-E, β-Carboline Alkaloids from the Bryozoan Orthoscuticella ventricosa Collected in Australia” (J Nat Prod, 2020).

Assays:
HEK293 [1] = assay: Cytotoxicity against HEK293 cells at 40 uM incubated for 72 hrs by resazurin dye based assay relative to control; type: cell-based; conditions: human, hek293, 72 h
HEK293 [2] = assay: Cytotoxicity against HEK293 cells incubated for 72 hrs by resazurin dye based assay; type: cell-based; conditions: Homo sapiens, HEK293, 72 h
Plasmodium falciparum [3] = assay: Antiplasmodial activity against chloroquine-sensitive Plasmodium falciparum 3D7 incubated for 72 hrs by DAPI-staining based imaging analysis; type: functional, organism-based; conditions: 3D7, 72 h
Plasmodium falciparum [4] = assay: Antiplasmodial activity against Plasmodium falciparum K1; type: functional, organism-based
[5] = Stability of compound; type: physicochemical

SMILES	IC50 (Plasmodium falciparum [3])	IC50 (Plasmodium falciparum [4])	IC50 (HEK293 [2])	further results
CCc1nccc2c1[nH]c1ccccc12	18 µM	–	> 40 µM	Activity (HEK293 [1]): 35%
CCN(CC)CCCC(C)Nc1ccnc2cc(Cl)ccc12 (stereo not drawn) [CHLOROQUINE]	–	–	> 40 µM	Activity (HEK293 [1]): 40%
c1ccc2c(c1)[nH]c1c([C@H]3CC[C@@H]3c3nccc4c3[nH]c3ccccc34)nccc12	> 40 µM	–	> 40 µM	Activity (HEK293 [1]): 29%
c1ccc2c(c1)[nH]c1c([C@H]3CC[C@H]3c3nccc4c3[nH]c3ccccc34)nccc12	10 µM	–	10 µM	–
OCC(O)c1nccc2c1[nH]c1ccccc12 (stereo not drawn)	14 µM	–	> 40 µM	Activity (HEK293 [1]): 37%
O=S(=O)(O)CCc1nccc2c1[nH]c1ccccc12	12 µM	–	> 40 µM	Activity (HEK293 [1]): 30%
CCN(CC)CCCNc1nccc2c1[nH]c1ccccc12	–	1 to 18 µM	–	–
OCCNc1nccc2c1[nH]c1ccccc12	–	1 to 18 µM	–	–
C[C@H]1[C@H](OC(=O)CCC(=O)O)O[C@@H]2O[C@@]3(C)CC[C@H]4[C@H](C)CC[C@@H]1[C@@]24OO3 [ARTESUNATE]	0.0003 µM	–	–	–
CCN(CC)CCCC(C)Nc1nccc2c1[nH]c1ccccc12 (stereo not drawn)	–	1 to 18 µM	–	–
CCc1ncc(S(C)(=O)=O)c2c1[nH]c1ccccc12	21 µM	–	> 40 µM	Activity (HEK293 [1]): 17%
CN(C)CCCNc1nccc2c1[nH]c1ccccc12	–	1 to 18 µM	–	–
CN(C)CCc1nccc2c1[nH]c1ccccc12	–	–	–	Stability [5]: Unstable

Now from value to compound, other results behind:

IC50 (Plasmodium falciparum [3])	IC50 (Plasmodium falciparum [4])	SMILES	IC50 (HEK293 [2])	further results
–	1 to 18 µM	CN1CCN(c2nccc3c2[nH]c2ccccc23)CC1	–	–
–	1 to 18 µM	CCN(CC)C1CCN(c2nccc3c2[nH]c2ccccc23)CC1	–	–
–	1 to 18 µM	c1ccc2c(c1)[nH]c1c(N3CCOCC3)nccc12	–	–
–	1 to 18 µM	OC1CCCN(c2nccc3c2[nH]c2ccccc23)C1 (stereo not drawn)	–	–
–	1 to 18 µM	c1ccc2c(c1)[nH]c1c(N3CCCCC3)nccc12	–	–
–	1 to 18 µM	c1ccc2c(c1)[nH]c1c(N3CCC(N4CCCCC4)CC3)nccc12	–	–
–	1 to 18 µM	c1ccc2c(c1)[nH]c1c(N3CCC(N4CCCC4)CC3)nccc12	–	–
–	1 to 18 µM	c1ccc2c(c1)[nH]c1c(N3CCC(N4CCCCCC4)CC3)nccc12	–	–
